# Legend:
# [1] = system: wheat cv. Retical; test: Test H safening on wheat by naphthalic anhydride seed treatment, pre-/postemergence; type: in vivo, Triticum aestivum; set-up: key to Response of wheat, Without naphthalic anhydride seed treatment: 0 = no effect, 100 = complete plant death, vs untreated control
# Procedure: This test evaluated the safening of compounds of the invention on wheat (Triticum aestivumL.) cv. ‘Retical’ by seed treatment with naphthalic anhydride. Some of the wheat seed was treated with napthalic anhydride as a 1% by weight seed dressing. The wheat seed were planted in pots containing pasteurized Sassafras sandy loam soil. For postemergence testing the plants were grown 8 days to the 2-leaf stage at time of treatment. Preemergence treatments were applied the same day that the seeds were planted. Treatments were applied by spraying the test compounds formulated in a non-phytotoxic solvent mixture, using a flat fan nozzle and a spray volume of 280 L/ha. The preemergence treatments were triply replicated and the results subsequently averaged. The pots were placed on a growth chamber bench using a complete randomized block design for the preemergence test except for the first replicate, which was unrandomized. The plants were grown in the growth chamber and watered as needed with a dilute nutrient solution containing 200 ppm of N. Illumination was provided by fluorescent lamps giving 200-300 μE/m^2/S of photosynthetically active radiation over a 14-hour photoperiod. The temperature was maintained at 23±2° C. during the day and 17±2° C. at night. The effects of the treatments were rated 25 days after preemergence treatment and 14 days after postemergence treatment. The plant response was visually rated in comparison to untreated controls using a scale of 0 to 100, with 0 representing no effect and 100 representing complete plant death. The results for the compounds tested preemergence are listed in Table H1, and the results for the compounds tested postemergence are listed in Table H2.
# [2] = system: kochia; test: Test E pre-/postemergence herbicide test; type: in vivo, Kochia scoparia
# Excerpt: Seeds of plant species selected from bipinnate beggarticks (Bidens bipinnata L.), hairy beggarticks (Bidens radiata Thuill.), bermudagrass (Cynodon dactylon (L.) Pers.), Surinam grass (Urochloa decumbens (Staph) R. D. Webster, previously named Brachiaria decumbens Stapf), large crabgrass (Digitaria sanguinalis (L.) Scop.), green foxtail (Setaria viridis (L.) P. Beauv.), goosegrass (Eleusine indica (L.) Gaertn.), johnsongrass (Sorghum halepense (L.) Pers.), kochia (Kochia scoparia (L.) Schrad.), pitted morningglory (Ipomoea lacunosa L.), purple nutsedge (Cyperus rotundus L.), common ragweed (Ambrosia elatior L.), mustard (Brassica nigra (L.) W. D. J. Koch), guineagrass (Panicum maximum Jacq.), dallisgrass (Paspalum dilatatum Poir.), barnyardgrass (Echinochloa crus-galli (L). P. Beauv.), southern sandbur (Cenchrus echinatus L.), common sowthistle (Sonchus oleraceous L.), prickly sida (Sida spinosa L.), Italian ryegrass (Lolium multiflorum Lam.), common purslane (Portulaca oleracea L.), broadleaf signalgrass (Brachiaria platyphylla (Griseb.) Nash), common groundsel (Senecio vulgaris L.), common chickweed (Stellaria media (L.) Vill/Cyr.), tropical spiderwort (Commelina benghalensis L.), annual bluegrass (Poa annua L.), downy bromegrass (Bromus tectorum L.), itchgrass (Rottboellia cochinchinensis (L.) L.f.), quackgrass (Elytrigia repens (L.) Nevski), Canada horseweed (Erigeron Canadensis L.), field bindweed (Convolvulus arvensis L.), spotted spurge (Euphorbia maculata L.), common mallow (Malva sylvestris (=s silvestris) L.), and Russian thistle (Salsola kali L. ssp. Ruthenica (Iljin) Soo) were planted and treated preemergence with test chemicals formulated in a non-phytotoxic solvent mixture which included a surfactant.
# (§1) At the same time, plants selected from these weed species were treated with postemergence applications of some of the test chemicals formulated in the same manner. Plants ranged in height from 2 to 18 cm (1- to 4-leaf stage) for postemergence treatments. Treated plants and controls were maintained in a greenhouse for 12 to 14 days, after which time all species were compared to controls and visually evaluated. Plant response ratings, summarized in Table E, are based on a scale of 0 to 100 where 0 is no effect and 100 is complete control. A dash (-) response means no test result.
# [3] = system: Italian ryegrass; test: Test F pre-/postemergence herbicide test; type: in vivo, Lolium multiflorum
# Excerpt: (§2) Seeds of plant species selected from annual blugrass (Poa annua L.), blackgrass (Alopecurus myosuroides Huds.), catchweed bedstraw (Gallium aparine L.), common chickweed (Stellaria media (L.) Vill./Cyr.), downy bromegrass (Bromus tectorum L.), green foxtail (Setaria viridis (L.) Beauv.), Italian ryegrass (Lolium multiflorum Lam.), kochia (Kochia scoparia (L.). Schrad.), lambsquarters (Chenopodium album L.), littleseed canarygrass (Phalaris minor Retz.), pigweed (Amaranthus retroflexus L.), Russian thistle (Salsola kali L. ssp. Ruthenica (Iljin) Soo), wild buckwheat (Polygonum convolvulus L.), wild mustard (Sinapis arvensis L.), wild oat (Avena fatua L.), windgrass (Apera spica-venti (L.) Beauv.), winter barley (Hordeum vulgare L.), and wheat (Triticum aestivum L.) were planted and treated preemergence with test chemicals formulated in a non-phytotoxic solvent mixture which included a surfactant.
# as §1, with “these crop and” for “these”, “F,” for “E,”
# [4] = system: green foxtail; test: Test F pre-/postemergence herbicide test; type: in vivo, Setaria viridis
# Excerpt: as §2
# as §1, with “these crop and” for “these”, “F,” for “E,”
# [5] = system: downy bromegrass; test: Test F pre-/postemergence herbicide test; type: in vivo, Bromus tectorum
# Excerpt: as §2
# as §1, with “these crop and” for “these”, “F,” for “E,”
# [6] = system: annual blugrass; test: Test F pre-/postemergence herbicide test; type: in vivo, Poa annua
# Excerpt: as §2
# as §1, with “these crop and” for “these”, “F,” for “E,”
# [7] = system: catchweed bedstraw; test: Test F pre-/postemergence herbicide test; type: in vivo, Gallium aparine
# Excerpt: as §2
# as §1, with “these crop and” for “these”, “F,” for “E,”
# [8] = Preemergence, 62 g ai/ha, scale 0 to 100
# [9] = Preemergence, 250 g ai/ha, scale 0 (no effect) to 100 (complete control)
# [10] = Preemergence, 500 g ai/ha, scale 0 (no effect) to 100 (complete control)
compound,measurement,setting,value
"CCNC(=O)c1ccc(F)c(NC(=O)c2cc(C(C)(C)C)nn2CC)c1 [Compound 2, 3-(1,1-dimethylethyl)-1-ethyl-N-[5-[(ethylamino)carbonyl]-2-fluorophenyl]-1H-pyrazole-5-carboxamide]","Response of wheat, With 1% naphthalic anhydride seed treatment","[1]; postemergence, 62 g a.i./ha",30
same,"Response of wheat, Without naphthalic anhydride seed treatment","[1]; postemergence, 62 g a.i./ha",60
same,"Response of wheat, With 1% naphthalic anhydride seed treatment","[1]; postemergence, 125 g a.i./ha",65
same,"Response of wheat, Without naphthalic anhydride seed treatment","[1]; postemergence, 125 g a.i./ha",75
same,"Response of wheat, With 1% naphthalic anhydride seed treatment","[1]; preemergence, 62 g a.i./ha",50
same,"Response of wheat, Without naphthalic anhydride seed treatment","[1]; preemergence, 62 g a.i./ha",62
same,"Response of wheat, With 1% naphthalic anhydride seed treatment","[1]; preemergence, 125 g a.i./ha",72
same,"Response of wheat, Without naphthalic anhydride seed treatment","[1]; preemergence, 125 g a.i./ha",82
same,"Plant response rating, Kochia",[2]; [8],90
same,"Plant response rating, Kochia","[2]; Preemergence, 125 g ai/ha, scale 0 (no effect) to 100 (complete control)",100
same,"Plant response rating, Kochia",[2]; [9],100
same,"Plant response rating, Kochia",[2]; [10],100
same,"Plant response rating, Kochia","[2]; postemergence, 125 g ai/ha, scale 0 to 100",100
"CCn1nc(C(C)(C)C)cc1C(=O)Nc1cccc(C(N)=O)n1 [Compound 162, 6-[[[3-(1,1-dimethylethyl)-1-ethyl-1H-pyrazol-5-yl]carbonyl]amino]-2-pyridinecarboxamide]","Plant response rating (0-100), Ryegrass, Italian","[3]; Postemergence, 62 g ai/ha",70
same,"Plant response rating (0-100), Ryegrass, Italian","[3]; Postemergence, 125 g ai/ha",80
same,"Plant response rating (0-100), Ryegrass, Italian","[3]; Postemergence, 250 g ai/ha",90
same,"Plant response rating (0-100), Ryegrass, Italian","[3]; Postemergence, 500 g ai/ha",100
same,"Plant response rating (0-100), Ryegrass, Italian","[3]; Preemergence, 62 g ai/ha",100
same,"Plant response rating (0-100), Ryegrass, Italian","[3]; Preemergence, 125 g ai/ha",100
same,"Plant response rating (0-100), Ryegrass, Italian","[3]; Preemergence, 250 g ai/ha",100
same,"Plant response rating (0-100), Ryegrass, Italian","[3]; Preemergence, 500 g ai/ha",100
same,"Plant response rating (0-100), Foxtail, Green","[4]; Postemergence, 62 g ai/ha",50
same,"Plant response rating (0-100), Foxtail, Green","[4]; Postemergence, 125 g ai/ha",50
same,"Plant response rating (0-100), Foxtail, Green","[4]; Postemergence, 250 g ai/ha",60
same,"Plant response rating (0-100), Foxtail, Green","[4]; Postemergence, 500 g ai/ha",100
same,"Plant response rating (0-100), Foxtail, Green","[4]; Preemergence, 62 g ai/ha",70
same,"Plant response rating (0-100), Foxtail, Green","[4]; Preemergence, 125 g ai/ha",100
same,"Plant response rating (0-100), Foxtail, Green","[4]; Preemergence, 250 g ai/ha",100
same,"Plant response rating (0-100), Foxtail, Green","[4]; Preemergence, 500 g ai/ha",100
same,"Response of wheat, With 1% naphthalic anhydride seed treatment","[1]; postemergence, 62 g a.i./ha",5
same,"Response of wheat, Without naphthalic anhydride seed treatment","[1]; postemergence, 62 g a.i./ha",5
same,"Response of wheat, With 1% naphthalic anhydride seed treatment","[1]; postemergence, 125 g a.i./ha",30
same,"Response of wheat, Without naphthalic anhydride seed treatment","[1]; postemergence, 125 g a.i./ha",70
same,"Response of wheat, With 1% naphthalic anhydride seed treatment","[1]; preemergence, 62 g a.i./ha",47
same,"Response of wheat, Without naphthalic anhydride seed treatment","[1]; preemergence, 62 g a.i./ha",60
same,"Response of wheat, With 1% naphthalic anhydride seed treatment","[1]; preemergence, 125 g a.i./ha",62
same,"Response of wheat, Without naphthalic anhydride seed treatment","[1]; preemergence, 125 g a.i./ha",98
same,"Response of wheat, With 1% naphthalic anhydride seed treatment","[1]; preemergence, 250 g a.i./ha",96
same,"Response of wheat, Without naphthalic anhydride seed treatment","[1]; preemergence, 250 g a.i./ha",98
same,"Plant response rating (0-100), Bromegrass, Downy","[5]; Postemergence, 62 g ai/ha",50
same,"Plant response rating (0-100), Bromegrass, Downy","[5]; Postemergence, 125 g ai/ha",50
same,"Plant response rating (0-100), Bromegrass, Downy","[5]; Postemergence, 250 g ai/ha",80
same,"Plant response rating (0-100), Bromegrass, Downy","[5]; Postemergence, 500 g ai/ha",90
same,"Plant response rating (0-100), Bromegrass, Downy","[5]; Preemergence, 62 g ai/ha",70
same,"Plant response rating (0-100), Bromegrass, Downy","[5]; Preemergence, 125 g ai/ha",100
same,"Plant response rating (0-100), Bromegrass, Downy","[5]; Preemergence, 250 g ai/ha",100
same,"Plant response rating (0-100), Bromegrass, Downy","[5]; Preemergence, 500 g ai/ha",100
same,"Plant response rating (0-100), Bluegrass","[6]; Postemergence, 62 g ai/ha",60
same,"Plant response rating (0-100), Bluegrass","[6]; Postemergence, 125 g ai/ha",60
same,"Plant response rating (0-100), Bluegrass","[6]; Postemergence, 250 g ai/ha",90
same,"Plant response rating (0-100), Bluegrass","[6]; Postemergence, 500 g ai/ha",100
same,"Plant response rating (0-100), Bluegrass","[6]; Preemergence, 62 g ai/ha",100
same,"Plant response rating (0-100), Bluegrass","[6]; Preemergence, 125 g ai/ha",100
same,"Plant response rating (0-100), Bluegrass","[6]; Preemergence, 250 g ai/ha",100
same,"Plant response rating (0-100), Bluegrass","[6]; Preemergence, 500 g ai/ha",100
same,"Plant response rating, Kochia",[2]; [8],60
same,"Plant response rating, Kochia","[2]; Preemergence, 125 g ai/ha, scale 0 to 100",70
same,"Plant response rating, Kochia",[2]; [9],95
same,"Plant response rating, Kochia",[2]; [10],95
same,"Plant response rating (0-100), Galium","[7]; Preemergence, 62 g ai/ha",60
same,"Plant response rating (0-100), Galium","[7]; Preemergence, 125 g ai/ha",70
same,"Plant response rating (0-100), Galium","[7]; Preemergence, 250 g ai/ha",100
same,"Plant response rating (0-100), Galium","[7]; Preemergence, 500 g ai/ha",100
CCc1nn(C(C)(C)C)cc1C(=O)Nc1cc(C(=O)N(CC)CC)ccc1F [Compound 223],"Plant response rating (0-100), Ryegrass, Italian","[3]; Postemergence, 125 g ai/ha",45
same,"Plant response rating (0-100), Ryegrass, Italian","[3]; Preemergence, 125 g ai/ha",65
same,"Plant response rating (0-100), Foxtail, Green","[4]; Postemergence, 125 g ai/ha",60
same,"Plant response rating (0-100), Foxtail, Green","[4]; Preemergence, 125 g ai/ha",55
same,"Plant response rating (0-100), Bromegrass, Downy","[5]; Postemergence, 125 g ai/ha",20
same,"Plant response rating (0-100), Bromegrass, Downy","[5]; Preemergence, 125 g ai/ha",50
same,"Plant response rating (0-100), Bluegrass","[6]; Postemergence, 125 g ai/ha",50
same,"Plant response rating (0-100), Bluegrass","[6]; Preemergence, 125 g ai/ha",100
same,"Plant response rating (0-100), Galium","[7]; Postemergence, 125 g ai/ha",60
same,"Plant response rating (0-100), Galium","[7]; Preemergence, 125 g ai/ha",50

# Source: patent US20060069132A1, “Azolecarboxamide herbicides” (priority 2004, published 2006)
